Laboratory results reported in patent publication US11845747B2, “Ester and carbonate pyrimidine compounds as JAK kinase inhibitors” (priority 2019, dated 2023).

Assays:
[1] = target: T1, Tyk2 (Homo sapiens, UniProt P29597); assay: Biochemical LanthaScreen Tyk2 kinase assay; conditions: Km ATP 10 μM; pKi from pIC50 by Cheng-Prusoff; read-out: Tyk 2 (pKi) (converted)
T1 construct: GST; purchased Life Technologies
Method: Assay 1: Biochemical JAK and Tyk2 Kinase Assays A panel of four LanthaScreen JAK biochemical assays (JAK1, 2, 3 and Tyk2) were carried in a common kinase reaction buffer (50 mM HEPES, pH 7.5, 0.01% Brij-35, 10 mM MgCl2, and 1 mM EGTA). Recombinant GST-tagged JAK enzymes and a GFP-tagged STAT1 peptide substrate were obtained from Life Technologies. Serially or discretely diluted compounds were pre-incubated with each of the four JAK enzymes and the substrate in white 384-well microplates (Corning) at ambient temperature for 1 h. ATP was subsequently added to initiate the kinase reactions in 10 μL total volume, with 1% DMSO. […] Kinase reactions were allowed to proceed for 1 hour at ambient temperature before a 10 μL preparation of EDTA (10 mM final concentration) and Tb-anti-pSTAT1 ([…]) antibody (Life Technologies, 2 nM final concentration) in TR-FRET dilution buffer (Life Technologies) was added. The plates were allowed to incubate at ambient temperature for 1 h before being read on the EnVision reader (Perkin Elmer). Emission ratio signals (520 nm/495 nm) were recorded and utilized to calculate the percent inhibition values based on DMSO and background controls. For dose-response analysis, percent inhibition data were plotted vs. compound concentrations, and IC50 values were determined from a 4-parameter robust fit model with the Prism software (GraphPad Software). Results were expressed as pIC50 (negative logarithm of IC50) and subsequently converted to pKi (negative logarithm of dissociation constant, Ki) using the Cheng-Prusoff equation.

[2] = in vitro; format: in vitro ADME; conditions: human, microsomes, pH 7.4
Method: Assay 3: Human Liver Microsome Assay The objective of this assay was to assess the metabolic stability of test compounds in an in vitro human liver sub-fraction. Human liver microsomes obtained from Bioreclamation-IVT (Baltimore, Md.) were thawed on ice and diluted into 0.1M potassium phosphate buffer pH 7.4 to yield final incubation protein concentrations of 0.1 mg/mL. Test compounds (10 mM) were diluted into NADPH cofactor to yield final incubation concentrations of 0.1 μM test compound and 1 mM NADPH. Incubations were conducted at 37° C. temperature and test aliquots were taken at time points 0, 5, 8, 15, 30 and 45 minutes. […] The resulting samples were injected onto an LC-MS/MS system for analysis. For each incubation, the peak area of the analytes in each t0 aliquot was set to 100% and the peak areas from subsequent time point aliquots were converted to percentage of parent compound remaining relative to t0. The percentage of parent compound remaining was converted to natural log scale and plotted versus time in minutes. A linear regression analysis was performed for the initial decline of the parent disappearance profile and a formula for the best-fit line determined. The slope of the resultant line was normalized to protein concentration in mg/mL protein or number of cells/mL and CLint was calculated as follows for liver microsomes: CLint(μL·min^−1·mg^−1)=(Slope×1000)/[protein, mg/mL]

[3] = system: Caco-2 cell monolayers; assay: Caco-2 permeation assay; format: in vitro ADME; conditions: A to B, 5 μM compound, with Verapamil 25 μM, 120 minutes
Method: Assay 8: Caco-2 Permeation Assay The Caco-2 permeation assay was used as an indication of skin permeability. The assay measures the rate at which test compounds in solution permeate a cell monolayer (designed to mimic the tight junction of human small intestinal monolayers). CacoReady 24-well transwell plates were obtained from […], Calif.). The compounds were evaluated at a concentration of 5 μM from 10 mM DMSO stock solutions in duplicate (n=2). The passive permeability of the compounds tested was evaluated using Caco-2 cell monolayers along with Verapamil (25 μM) to inhibit P-gp transport proteins in the apical to basolateral (A-B) direction. The experiment was conducted in a 37° C., 5% CO2 incubator. Caco-2 culture media consisted of standard filtered DMEM, FCS 10%, L-Glutamine 1% and PenStrep 1%. Basal assay plate was prepared by adding 750 μL of transport buffer to A-B wells. A CacoReadyTM plate was prepared by removing the Caco-2 media from the apical wells and replacing with fresh transport media (200 μL repeated for a total of 3 washes). Blank media (200 μL) was then replaced with diluted compound for A-B wells. To begin the incubation, the basal plate was removed from the incubator and the apical section was added on top of it. […] The permeation coefficient (Kp, mean A to B+Verapamil […]) in cm/sec was calculated as dQ (flux)/(dt×Area×concentration).

T1 sequence (P29597 whole entry): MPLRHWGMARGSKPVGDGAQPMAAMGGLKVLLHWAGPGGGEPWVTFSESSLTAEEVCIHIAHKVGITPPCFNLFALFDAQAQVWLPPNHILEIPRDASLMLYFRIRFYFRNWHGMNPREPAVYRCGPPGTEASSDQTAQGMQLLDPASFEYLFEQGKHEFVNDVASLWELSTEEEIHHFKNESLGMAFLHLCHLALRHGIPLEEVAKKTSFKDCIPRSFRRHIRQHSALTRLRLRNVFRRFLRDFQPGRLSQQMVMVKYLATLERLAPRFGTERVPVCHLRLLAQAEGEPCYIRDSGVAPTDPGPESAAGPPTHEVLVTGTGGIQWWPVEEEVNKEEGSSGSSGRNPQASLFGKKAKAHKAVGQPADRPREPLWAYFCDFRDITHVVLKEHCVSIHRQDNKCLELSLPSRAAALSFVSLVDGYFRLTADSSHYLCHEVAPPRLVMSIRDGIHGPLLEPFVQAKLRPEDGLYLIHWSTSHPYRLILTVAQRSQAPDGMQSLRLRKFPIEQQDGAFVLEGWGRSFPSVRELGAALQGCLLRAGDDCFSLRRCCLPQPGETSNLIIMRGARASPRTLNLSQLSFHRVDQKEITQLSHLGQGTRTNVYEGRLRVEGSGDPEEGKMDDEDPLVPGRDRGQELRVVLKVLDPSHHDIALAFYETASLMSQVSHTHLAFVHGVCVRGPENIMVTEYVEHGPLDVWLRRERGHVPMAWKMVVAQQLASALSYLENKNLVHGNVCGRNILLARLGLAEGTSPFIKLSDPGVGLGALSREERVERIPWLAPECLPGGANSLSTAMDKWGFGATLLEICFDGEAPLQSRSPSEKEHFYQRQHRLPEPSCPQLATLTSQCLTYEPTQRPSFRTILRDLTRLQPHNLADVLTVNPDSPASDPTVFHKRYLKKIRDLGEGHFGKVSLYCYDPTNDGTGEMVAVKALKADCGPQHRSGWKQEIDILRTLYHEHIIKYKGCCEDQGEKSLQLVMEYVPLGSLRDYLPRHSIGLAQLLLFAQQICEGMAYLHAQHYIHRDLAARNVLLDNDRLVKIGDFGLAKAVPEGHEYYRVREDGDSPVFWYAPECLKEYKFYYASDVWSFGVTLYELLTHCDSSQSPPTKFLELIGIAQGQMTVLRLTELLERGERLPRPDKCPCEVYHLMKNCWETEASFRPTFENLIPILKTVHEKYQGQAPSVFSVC

Row | SMILES | Ki [1] [nM] | microsomal CLint at 0.1 μM [2] [µL/min/mg] | Cacoverap Kp [3] [×10⁻⁶ cm/s]
1 | CCS(=O)(=O)N1[C@@H]2CCC[C@H]1C[C@H](N(C)c1nc(COC(=O)OC3CCCCC3)c(F)c(Nc3cc(C)[nH]n3)n1)C2 [Compound 6, cyclohexyl ((2-(((1R,3s,5S)-9-(ethylsulfonyl)-9-azabicyclo[3.3.1]nonan-3-yl)(methyl)amino)-5-fluoro-6-((5-methyl-1H-pyrazol-3-yl)amino)pyrimidin-4-yl)methyl) carbonate] | 1 to 10 |  | 
2 | CCS(=O)(=O)N1[C@@H]2CCC[C@H]1C[C@H](N(C)c1nc(COC(C)=O)c(F)c(Nc3cc(C)[nH]n3)n1)C2 [Compound 1, (2-(((1R,3s,5S)-9-(ethylsulfonyl)-9-azabicyclo[3.3.1]nonan-3-yl)(methyl)amino)-5-fluoro-6-((5-methyl-1H-pyrazol-3-yl)amino)pyrimidin-4-yl)methyl acetate] | ≤ 0.1 |  | 
3 | CCS(=O)(=O)N1[C@@H]2CCC[C@H]1C[C@H](N(C)c1nc(CO)c(F)c(Nc3cc(C)[nH]n3)n1)C2 [Compound M, (2-(((1R,3s,5S)-9-(ethylsulfonyl)-9-azabicyclo[3.3.1]nonan-3-yl)(methyl)amino)-5-fluoro-6-((5-methyl-1H-pyrazol-3-yl)amino)pyrimidin-4-yl)methanol] | 0.1 to 1 | 132 | 42.3
4 | CCS(=O)(=O)N1[C@@H]2CCC[C@H]1C[C@H](N(C)c1nc(COC(=O)C3CCOCC3)c(F)c(Nc3cc(C)[nH]n3)n1)C2 [Compound 7, (2-(((1R,3s,5S)-9-(ethylsulfonyl)-9-azabicyclo[3.3.1]nonan-3-yl)(methyl)amino)-5-fluoro-6-((5-methyl-1H-pyrazol-3-yl)amino)pyrimidin-4-yl)methyl tetrahydro-2H-pyran-4-carboxylate] | ≤ 0.1 | > 2500 | 
5 | CCS(=O)(=O)N1[C@@H]2CCC[C@H]1C[C@H](N(C)c1nc(COC(=O)OC3CCOCC3)c(F)c(Nc3cc(C)[nH]n3)n1)C2 [Compound 9, (2-(((1R,3s,5S)-9-(ethylsulfonyl)-9-azabicyclo[3.3.1]nonan-3-yl)(methyl)amino)-5-fluoro-6-((5-methyl-1H-pyrazol-3-yl)amino)pyrimidin-4-yl)methyl (tetrahydro-2H-pyran-4-yl) carbonate] | 0.1 to 1 | > 2500 | 
